Test results: US9376725B1, “Methods of screening for compounds for treating muscular dystrophy using human ALPHA7 integrin mRNA translation regulation” (PTC Therapeutics, Inc., priority 2007, dated 2016)

Experiments:
[1] = CellTiter-Glo cytotoxicity assay, Huh7; format: cell-based; settings: human, Huh7 cells (hepatoblastoma cell line); Huh7, intermediate level of sensitivity
[2] = CellTiter-Glo cytotoxicity assay, U937; format: cell-based; settings: human, U937 cells (monocyte cell line); U937, relatively sensitive cell line
Source text: To evaluate cytotoxicity of the compounds in the 293H and RD cell lines, the CellTiter-Glo assay (Promega) is utilized. CellTiter-Glo determines the number of viable cells in culture based on quantification of the ATP present, which signals the presence of metabolically active cells. A reduction in cellular ATP is indicative of a cytotoxic or cytostatic effect. Doxorubicin, a known cytotoxic compound, is used to address the sensitivity of the tested cell line. For relatively sensitive cell lines, such as U937 (a human monocyte cell line), the CC50 of doxorubicin ranges from 4 to 10 nM.

ITGA7 mRNA = assay: fLuc reporter gene assay, ITGA7 5′-UTR and 3′-UTR stable cell line; format: cell-based, human; settings: 7.5 μM test concentration, 24 hours, vs 0.5% DMSO, luciferase luminescence, stable 293H or RD cells
Source text: (§1) As shown in the following examples, compounds that modulate the expression of proteins (e.g., mIGF1, ITGA7, or UTRN) have been identified or validated and have the potential to treat MD, or a form thereof. Stable muscle (RD) or kidney (293H) cell lines expressing the firefly luciferase (fLuc) reporter gene flanked by the 5′-UTR and 3′-UTR of mIGF1, ITGA7, or UTRN mRNA were constructed and used to identify or validate compounds able to specifically increase expression of a reporter gene via nucleic acid constructs comprising at least the 5′-UTR and 3′-UTR of mIGF1, ITGA7 or UTRN and to increase expression of endogenous mIGF1, ITGA7 or UTRN protein.
(§2) A high-level expression vector, pcDNA™3.1/Hygro (Invitrogen Corp., Carlsbad, Calif.) was used for preparing the constructs comprising the luciferase gene flanked by any of the 5′-UTR and 3′-UTR, the 5′-UTR or the 3′-UTR of mIGF1, ITGA7, and UTRN mRNA. In a pcDNA™3.1/Hygro vector, the UTRs and restriction sites normally associated with cloning and/or expressing a gene of interest or reporter gene were removed or replaced. For each construct containing 5′ UTR sequences, the 5′ UTR sequences with a start codon were cloned into the vector using the appropriate restriction sites.
(§3) Stable 293H and RD cell lines containing the firefly luciferase (fLuc) gene flanked by mIGF1, ITGA7, or UTRN 5′-UTR and 3′-UTR were cultured in DMEM medium supplemented with 10% FBS and 200 μg/mL hygromycin in Fisher T175 flasks. The cells were passaged every 4 days at 1:10 dilution. Cultures were kept in a 37° C. and 5% CO2 incubator. The cells were scaled-up three days before performing the assay. Two confluent T175 flasks were split into twenty T175 flasks (1:10 dilution). Cells were harvested from each confluent flask by removing all of the media and adding 4 mL of warmed trypsin to dislodge the cells. After the cells were dislodged, 16 mL of selective media was added for a final volume of 20 mL. The cells were expanded by adding 2 mL of the harvested cells into ten new T175 flasks plus 25 ml, of selective media. The twenty new flasks were placed into the 37° C., 5% CO2 incubator. On the day the assay was performed, the media was removed from the flasks and 3 mL of warmed trypsin was added to dislodge the cells. After the cells were dislodged, 10 mL of nonselective media was added to the flask. This was repeated for all twenty flasks and combined into one flask. 100 μL of the above cell culture plus 100 μL of Trypan Blue stain was counted on a hemocytometer. 38 μL of cells (approximately 263 cells/4) were plated in the presence of 2 μL of a compound to be tested (at final concentration of 7.5 μM with 0.5% DMSO).
(§4) The firefly luciferase substrate used was Luc Lite Plus Packard #6016969. Luciferase activity was immediately assayed using a ViewLux Imaging system (Perkin Elmer).
(§5) The screening assay was performed by preparing plates containing test compounds and controls, including wells that contained only vehicle or a high inhibitor concentration and wells that provided an 8-point dose response curve of puromycin, a non-specific standard control inhibitor. The cells were grown overnight in the presence of compounds or controls at 37° C. in 5% CO2. Compounds were screened once for percent inhibition at a 7.5 μM test concentration. After 24 hours, the amount of luminescence was determined using a ViewLux Imaging system (Perkin Elmer).
(§6) The results for compounds shown in the following tables indicate that the compounds of the present invention enhance post-transcriptional expression of a nucleic acid construct comprising a reporter gene operably linked to any of the 5′-UTR and 3′-UTR, the 5′-UTR or the 3′-UTR of the target mIGF1 mRNA (Table 1), ITGA7 mRNA (Table 2), or UTRN mRNA (Table 3). […]

mIGF1 mRNA = assay: fLuc reporter gene assay, mIGF1 5′-UTR and 3′-UTR stable cell line; format: cell-based, human; settings: 7.5 μM test concentration, 24 hours, vs 0.5% DMSO, luciferase luminescence, stable 293H or RD cells
Source text: as §1, §2, §3, §4, §5, §6

UTRN mRNA = assay: fLuc reporter gene assay, UTRN 5′-UTR and 3′-UTR stable cell line; format: cell-based, human; settings: 7.5 μM test concentration, 24 hours, vs 0.5% DMSO, luciferase luminescence, stable 293H or RD cells
Source text: as §1, §2, §3, §4, §5, §6

dystrophin [3] = settings: human clinical trials; cited from earlier work
dystrophin [4] = settings: mouse model; results could not be replicated; cited from earlier work

Row | Molecule | CC50 [1] | CC50 [2] | ITGa7, fold increase compared to negative control (ITGA7 mRNA) | mIGF1, fold increase compared to negative control (mIGF1 mRNA) | UTRN, fold increase compared to negative control (UTRN mRNA) | increase in expression of dystrophin (dystrophin [3]) | increase in dystrophin levels (dystrophin [4])
1 | COc1cccc2c1C(=O)c1c(O)c3c(c(O)c1C2=O)C[C@@](O)(C(=O)CO)C[C@@H]3O[C@H]1C[C@H](N)[C@H](O)[C@H](C)O1 [doxorubicin, Doxorubicin] | 70 to 300 nM | 4 to 10 nM |  |  |  |  | 
2 | Oc1cccc(-c2nc3ccc4ccccc4c3c3c2CCC3)c1 [Cpd 4, 3-(2,3-dihydro-1H-benzo[f]cyclopenta[c]quinolin-4-yl)phenol] |  |  | *** (three stars indicate a greater than two-fold and up to three-fold increase in target mRNA) | *** (three stars indicate a greater than two-fold and up to three-fold increase in target mRNA) | ** (two stars indicate a greater than one-fold and up to two-fold increase in target mRNA) |  | 
3 | CCCCOc1ccc(C(=O)NC(=S)Nc2cc(-c3nc4ccccc4s3)ccc2C)cc1 [Cpd 7, N-(5-(benzo[d]thiazol-2-yl)-2-methylphenylcarbamothioyl)-4-butoxybenzamide] |  |  | **** (four stars indicate a greater than three-fold and up to four-fold increase in target mRNA) | *** (three stars indicate a greater than two-fold and up to three-fold increase in target mRNA) | ** (two stars indicate a greater than one-fold and up to two-fold increase in target mRNA) |  | 
4 | N#CC1=C(N)Oc2c(ccc3ccccc23)C1c1cccc(C(F)(F)F)c1 (stereo not shown) [Cpd 6, 2-amino-4-(3-(trifluoromethyl)phenyl)-4H-benzo[h]chromene-3-carbonitrile] |  |  | * (one star indicates less than one-fold increase in target mRNA) | * (one star indicates less than one-fold increase in target mRNA) | ** (two stars indicate a greater than one-fold and up to two-fold increase in target mRNA) |  | 
5 | gentamicin |  |  |  |  |  | no increase | 10-20%
6 | CCOc1ccc(C(=O)NC(=S)Nc2ccc(-c3nc4ccccc4s3)cc2)cc1[N+](=O)[O-] [Cpd 5, N-(4-(benzo[d]thiazol-2-yl)phenylcarbamothioyl)-4-ethoxy-3-nitrobenzamide] |  |  | *** (three stars indicate a greater than two-fold and up to three-fold increase in target mRNA) | ** (two stars indicate a greater than one-fold and up to two-fold increase in target mRNA) | *** (three stars indicate a greater than two-fold and up to three-fold increase in target mRNA) |  | 
7 | CCCc1cc(Cl)n2c(nc3ccccc32)c1C#N [Cpd 3, 1-chloro-3-propyl-benzoimidazo[1,2-a]pyridine-4-carbonitrile] |  |  | * (one star indicates less than one-fold increase in target mRNA) | * (one star indicates less than one-fold increase in target mRNA) | ** (two stars indicate a greater than one-fold and up to two-fold increase in target mRNA) |  | 
8 | Nc1ccc(Sc2cc(Cl)nc(N)n2)cc1 [Cpd 1, 4-(4-aminophenylthio)-6-chloropyrimidin-2-amine] |  |  | ** (two stars indicate a greater than one-fold and up to two-fold increase in target mRNA) | ** (two stars indicate a greater than one-fold and up to two-fold increase in target mRNA) | ** (two stars indicate a greater than one-fold and up to two-fold increase in target mRNA) |  | 
9 | CN(C)c1ccc(-c2nc3cc([N+](=O)[O-])ccc3[nH]2)cc1 [Cpd 2, N,N-dimethyl-4-(5-nitro-1H-benzo[d]imidazol-2-yl)aniline] |  |  | **** (four stars indicate a greater than three-fold and up to four-fold increase in target mRNA) | ** (two stars indicate a greater than one-fold and up to two-fold increase in target mRNA) | *** (three stars indicate a greater than two-fold and up to three-fold increase in target mRNA) |  | 
